Experimental data from patent EP1279727A1, “TRANSFORMATION AND MODIFICATION OF NATURAL DRUG BY INTESTINAL PROBIOTIC FERMENTATIVE CULTURE” (Wu, Bingxin, priority 2000, dated 2002).
Where two headings read alike, the source gives them in different places.

Key:
H22 hepatocarcinoma [1] = settings: H22 mouse, positive control CTX subcutaneously
Experimental: (§1) Using species Kunming mouse subcutaneously grafted S180 sacoma or H22 hepatocarcinoma as cancer-harboring model animal, the inhibition activity on growth of cancer is observed with respect to extract of anti-cancer natural medicines which converted or unconverted by the above intestinal probiotics in either large dose or small dose.
(§2) For this purpose, 120 mice weighed from about 18-25g are grafted subcutaneously at right axilla with 1 x 10^7 cells/ml of S180 sacoma or H22 hepatocarcinoma (0.2ml/mouse) in order to obtain solid tumor model animal. The resultant model animal is grouped randomly into 12 groups. Each animal in treatment group is orally administrated with unfermented (in 1:1 dilution) or fermented (in 1:4 dilution) extract of natural medicines daily.
(§3) The administration of extract of natural medicine starts at the forth day from the date grafting cancer cells, i.e., the time when solid tumor can be touched by hand. After continuously administration over 10 days, the weight of animal and solid tumor are measured, respectively, and then inhibition rate of cancer can be calculated accordingly. The treatment experiments on the two types of cancer are carried out in triplicate.

S180 sacoma = settings: S180 mouse, positive control CTX subcutaneously
Experimental: as §1, §2, §3

H22 hepatocarcinoma [2] = type: in vivo; settings: H22 mouse, single therapy (subgroup 2 preparation alone; subgroup 3 5-Fu 15 mg/kg alone), 7 days
Experimental: 1. […] The resultant model mouse is grouped randomly into eight groups.
Each mouse in first four groups is treated for observing effect of the present natural medicine preparation on the efficiency of anti-cancer chemical agent, fliorouracil (5-Fu, 15 mg/kg), mice in the rest four groups is for the effect of the present compositions on the efficiency of radiotherapy for cancer (^60Co irradiation on whole body, 4.5 Gray /day/animal).
The combination therapy to both animal groups (4 subgroups in each group) starts from the next day of grafting tumor cells and continues for 7 days.
The synergetic effect of the present composition on chemical therapy or radiotherapy for cancer is calculated by the inhibition rate according to the following Burgi's correction equation: Q= E (A+B)/EA+EB-EAxEB [formula] wherein, E (A+B) is the cancer inhibition rate of the combined therapy, EA and EB are the cancer inhibition rate of the present composition administration, or the chemical therapy (or radiotherapy) alone.
Result: (1) If Q calculated is lower than 0.85, it is considered as an antergenic effect between combined therapy; (2) if Q is between 0.85 and 1.15, it is considered as an addictive effect; and (3) if Q is above 1.15, then it is deemed as synergetic effect between combined therapy. The particular results are listed in table 3 and table 4, respectively.

Row | SMILES | animal weight before ad. (H22 hepatocarcinoma [1]) | animal weight after ad. (H22 hepatocarcinoma [1]; after 10 days) | inhibition rate (H22 hepatocarcinoma [1]; after 10 days) [%] | solid tumor weight (X±SD) (H22 hepatocarcinoma [1]; after 10 days) | animal weight before ad. (S180 sacoma) | animal weight after ad. (S180 sacoma; after 10 days) | inhibition rate (S180 sacoma; after 10 days) [%] | solid tumor weight (X±SD) (S180 sacoma; after 10 days) | inhibition rate (H22 hepatocarcinoma [2]) [%] | tumor weight (X±SD) (H22 hepatocarcinoma [2])
1 | O=P1(N(CCCl)CCCl)NCCCO1 (stereo not shown) [positive control, cyclophosphamide] | 21.2 | 27.9 | 62.4 | 0.72±0.36 | 20.1 | 21.2 | 61.0 | 0.55±0.19 |  | 
2 | O=c1[nH]cc(F)c(=O)[nH]1 [5-Fu, fliorouracil] |  |  |  |  |  |  |  |  | 56.7 | 1.06±0.31
